Assay results reported in patent US9764014B2, “Use of toll-like receptor ligands as adjuvants to vaccination therapy for brain tumors” (Cedars-Sinai Medical Center, priority 2008, dated 2017).

Tests used:
primary BMDC = assay: IL-6 ELISA from primary BMDC derived from MyD88−/− and littermate controls; assay type: cell-based, mice; details: MyD88−/− DC compared to BMDC from wild-type littermate controls; LPS 100 ng/ml or 10 ng/ml with GL26 lysate
Method: Briefly, BMDCs were cultured in 24-well plates at 3×10^5 cells/ml and exposed to TLR ligands and lysate for 24 hours. Cell culture media were collected for ELISA analysis against IL-6, TNF-α and IL-12. Three independent experiments with at least three replicates per experiment were performed.
While the inventors provide evidence that GL26 tumor cells and TLR ligands activate primary BMDC. […] It is possible that the GL26 tumor cell activation is signaling through TLRs or at least through downstream signaling molecule MyD88. Therefore, primary dendritic cells from MyD88−/− and Wild-type controls were isolated and exposed to GL26 lysate and TLR ligand LPS at 100 ng/ml or 10 ng/ml. The inventors believe that LPS activation in MyD88−/− DC will not show up-regulation of secreted IL-6 protein as measured by ELISA. […] Furthermore, no significant difference exists between MyD88−/− and wild-type derived BMDC exposed to brain lysate (FIG. 10).
Primary BMDCs were isolated from the bone marrow of femurs of euthanized MyD88−/− and their +/+ littermate controls as described above. BMDCs were activated using 1) GL26 tumor lysate alone; 2) TLR ligands (Pam3cys (50 μg/ml) or LPS (50 ng/ml) or CpG ODN (5 μM) and tumor lysate for each; 3) Treatment of DCs with brain lysate alone may also serves as a control condition.

[1] = system: primary dendritic cells from MyD88−/− and wild-type controls; assay: ELISA for TNF-alpha in primary DC treated with LPS; assay type: cell-based, mice
Excerpt: While the inventors provide evidence that GL26 tumor cells and TLR ligands activate DC2.4 cells, it is unknown if GL26 lysate activation is signaling through MyD88−/− and/or TRIF dependent pathways. It is possible that the GL26 tumor cell activation is signaling through TLRs or at least through downstream signaling molecules MyD88 and/or TRIF. Therefore, the inventors isolated primary dendritic cells from MyD88−/− and wild-type controls and exposed them to GL26 lysate and TLR ligand LPS. The inventors believe that LPS activation in MyD88−/− DC will not show up-regulation of TNF-alpha protein as measured by ELISA.

BMDC = assay: IL-6, TNF-α and IL-12 ELISA of BMDC activated by GL26 lysate vs. TLR ligands; assay type: cell-based, C57BL/6 mice; details: FIG. 9 bottom panel, GL26 lysate plus TLR ligand
Method: Experiments were performed with at least three replicates per condition. As controls for these experiments the inventors utilized brain tissue lysate obtained from healthy C57BL/6 mice and untreated DCs. Furthermore, for each TLR ligand, the inventors utilized up to three different concentrations previously shown to activate dendritic cells in order to identify the best concentration for maximal activation of BMDC. […] However, TLR ligands alone consistently promote increases the dependent variables measured to a greater degree than TLR ligands with tumor lysate. However, it is likely that activation by TLR ligands alone would not prime T cells to be tumor antigen specific. […] Therefore, ELISA on BMDC treated with GL26 lysate and individual TLR ligands were performed as described above. […] TNF-α and IL-12 (FIG. 9).
Primary BMDCs were isolated from the femurs of 6-10 week old C57BL/6 mice and cultured in RPMI cell culture media with GM-CSF (1000 IU/ML) and IL-4 (1000 IU/ML). BMDCs (1×10^6 cells/ml) were maintained in cell culture at 37° C., 5% CO2 and exposed to with […] GL26 freeze-thaw lysate and either TLR2 ligand (Pam3Cys, 50 μg/ml), TLR4 ligand (LPS 50 ng/ml), or TLR9 ligand (CpG ODN 1826, 5 μM) overnight (ON). Control cells were treated with […] GL26 freeze-thaw lysate only. […]

Row | Substance | IL-6 secreted protein levels by ELISA (primary BMDC) | TNF-alpha protein by ELISA ([1]; MyD88−/− DC) | TNF-alpha protein by ELISA ([1]; wild-type DCs, compared to controls) | IL-12 protein production (BMDC)
1 | lipopolysaccharide [LPS] | reduced | no up-regulation | significant up-regulations | –
2 | Pam3cys | – | – | – | relatively limited increases
